Measured values as given in PubChem BioAssay AID1963854 (Molecular Pharmacology Branch, DTP, NCI, 2024).

Test system: 186277-243-T-J2-PDC complex spheroid viability
Experiment: Anticancer human tumor 186277-243-T-J2-PDC patient-derived colon adenocarcinoma cell line growth inhibition [POLQ]
Details: for IC50: curve of first compound; for viability, T/C: stronger effect = lower value
Method in brief: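 Complex spheroid viability model combining PDC tumour cells with endothelial (HUVEC) and MSC stromal cells. Novobiocin, ART-558 or RP6685 were tested singly and in combination with standard and investigational anticancer drugs. Each was titrated in half-log steps from near clinical Cmax, or from 10 microM where Cmax was unknown.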

[1] = second compound 0.0316 µM, first compound 0.00316 µM
[2] = second compound 0.0316 µM, first compound 0.01 µM
[3] = second compound 0.0316 µM, first compound 0.0316 µM
[4] = second compound 0.0316 µM, first compound 0.1 µM
[5] = second compound 0.1 µM, first compound 0.00316 µM
[6] = second compound 0.1 µM, first compound 0.01 µM
[7] = second compound 0.1 µM, first compound 0.0316 µM
[8] = second compound 0.1 µM, first compound 0.1 µM
[9] = second compound 0.316 µM, first compound 0.00316 µM
[10] = second compound 0.316 µM, first compound 0.01 µM
[11] = second compound 0.316 µM, first compound 0.0316 µM
[12] = second compound 0.316 µM, first compound 0.1 µM
[13] = second compound 1 µM, first compound 0.00316 µM
[14] = second compound 1 µM, first compound 0.01 µM
[15] = second compound 1 µM, first compound 0.0316 µM
[16] = second compound 1 µM, first compound 0.1 µM
[17] = second compound 3.16 µM, first compound 0.00316 µM
[18] = second compound 3.16 µM, first compound 0.01 µM
[19] = second compound 3.16 µM, first compound 0.0316 µM
[20] = second compound 3.16 µM, first compound 0.1 µM
[21] = second compound 10 µM, first compound 0.00316 µM
[22] = second compound 10 µM, first compound 0.01 µM
[23] = second compound 10 µM, first compound 0.0316 µM
[24] = second compound 10 µM, first compound 0.1 µM
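Also: spheroids exposed to compounds for seven days.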
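For viability, T/C in this document: 100% = DMSO vehicle control viability.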

CCc1c2c(nc3ccc(O)cc13)-c1cc3c(c(=O)n1C2)COC(=O)[C@]3(O)CC + COC1C(OC(N)=O)C(O)C(Oc2ccc3c(O)c(NC(=O)c4ccc(O)c(CC=C(C)C)c4)c(=O)oc3c2C)OC1(C)C
IC50 (second compound 0.0316 µM): 6.67 nM | IC50 (second compound 0.1 µM): 6.31 nM | IC50 (second compound 0.316 µM): 6.22 nM | IC50 (second compound 1 µM): 5.81 nM | IC50 (second compound 3.16 µM): 4.06 nM | IC50 (second compound 10 µM): 4.2 nM | viability, T/C [1]: 60.8% | viability, T/C [2]: 44.3% | viability, T/C [3]: 21.4% | viability, T/C [4]: 11.2% | viability, T/C (second compound 0.0316 µM, first compound 0.316 µM): 8.38% | viability, T/C (second compound 0.0316 µM, first compound 1 µM): 6.45% | viability, T/C [5]: 65% | viability, T/C [6]: 39.7% | viability, T/C [7]: 21.9% | viability, T/C [8]: 10.4% | viability, T/C (second compound 0.1 µM, first compound 0.316 µM): 8.32% | viability, T/C (second compound 0.1 µM, first compound 1 µM): 6.78% | viability, T/C [9]: 61.1% | viability, T/C [10]: 42% | viability, T/C [11]: 22.4% | viability, T/C [12]: 10.3% | viability, T/C (second compound 0.316 µM, first compound 0.316 µM): 7.76% | viability, T/C (second compound 0.316 µM, first compound 1 µM): 6.8% | viability, T/C [13]: 61.8% | viability, T/C [14]: 39.2% | viability, T/C [15]: 21.6% | viability, T/C [16]: 10.2% | viability, T/C (second compound 1 µM, first compound 0.316 µM): 8.22% | viability, T/C (second compound 1 µM, first compound 1 µM): 6.39% | viability, T/C [17]: 53.1% | viability, T/C [18]: 38.8% | viability, T/C [19]: 19.7% | viability, T/C [20]: 9.79% | viability, T/C (second compound 3.16 µM, first compound 0.316 µM): 7.9% | viability, T/C (second compound 3.16 µM, first compound 1 µM): 6.76% | viability, T/C [21]: 52.9% | viability, T/C [22]: 41.4% | viability, T/C [23]: 19% | viability, T/C [24]: 8.88% | viability, T/C (second compound 10 µM, first compound 0.316 µM): 8.76% | viability, T/C (second compound 10 µM, first compound 1 µM): 6.74%

CC[C@@]1(O)C(=O)OCc2c1cc1n(c2=O)Cc2cc3c(CN(C)C)c(O)ccc3nc2-1 + Cc1cccc(N(C)C(=O)C2C(O)CCN2c2nc(C)cc(C(F)(F)F)c2C#N)c1
IC50 (second compound 0.0316 µM): 93.3 nM | IC50 (second compound 0.1 µM): 98.4 nM | IC50 (second compound 0.316 µM): 93.6 nM | IC50 (second compound 1 µM): 86 nM | IC50 (second compound 3.16 µM): 84.6 nM | IC50 (second compound 10 µM): 61.6 nM | viability, T/C (second compound 0.0316 µM, first compound 0.000316 µM): 112% | viability, T/C (second compound 0.0316 µM, first compound 0.001 µM): 83.4% | viability, T/C [1]: 90.6% | viability, T/C [2]: 104% | viability, T/C [3]: 67% | viability, T/C [4]: 48.9% | viability, T/C (second compound 0.1 µM, first compound 0.000316 µM): 102% | viability, T/C (second compound 0.1 µM, first compound 0.001 µM): 96.7% | viability, T/C [5]: 96% | viability, T/C [6]: 103% | viability, T/C [7]: 74.8% | viability, T/C [8]: 49.6% | viability, T/C (second compound 0.316 µM, first compound 0.000316 µM): 83.1% | viability, T/C (second compound 0.316 µM, first compound 0.001 µM): 106% | viability, T/C [9]: 99.4% | viability, T/C [10]: 118% | viability, T/C [11]: 71.7% | viability, T/C [12]: 48.7% | viability, T/C (second compound 1 µM, first compound 0.000316 µM): 105% | viability, T/C (second compound 1 µM, first compound 0.001 µM): 96.9% | viability, T/C [13]: 96.7% | viability, T/C [14]: 114% | viability, T/C [15]: 74% | viability, T/C [16]: 46.4% | viability, T/C (second compound 3.16 µM, first compound 0.000316 µM): 102% | viability, T/C (second compound 3.16 µM, first compound 0.001 µM): 100% | viability, T/C [17]: 96.2% | viability, T/C [18]: 115% | viability, T/C [19]: 73.9% | viability, T/C [20]: 45.9% | viability, T/C (second compound 10 µM, first compound 0.000316 µM): 115% | viability, T/C (second compound 10 µM, first compound 0.001 µM): 96.2% | viability, T/C [21]: 104% | viability, T/C [22]: 87.5% | viability, T/C [23]: 59.8% | viability, T/C [24]: 42.6%
